{"source": "patent US5728684A", "about": "“Determination of prodrugs metabolizable by the liver and therapeutic use thereof” (priority 1994, dated 1998)", "key": {"IPdR oxidase [1]": {"system": "IPdR oxidase", "assay": "Conversion of IPdR to IUdR by cell extracts (human liver)", "assay_type": "in vitro ADME", "details": "3 samples", "description": "(§1) Rat hepatic tissue was washed with ice-cold 1.15% KCl and blotted dry. The tissue was then homogenized with a tissue homogenizer, in a volume of 1.15% KCl that was 3 times the tissue weight, to form a 25% (w/v) homogenate. The homogenate was then centrifuged at 10,000 g for 10 minutes at 4° C. The resulting supernatant was filtered through Miracloth (similar to cheese cloth) then dialyzed overnight against 50 mM Tris-HCl buffer pH 7.5 and stored at -80° C. before use. Rat hepatocytes were obtained by a perfusion technique then the cells were extracted with 10 mM phosphate buffer, pH 7.5, containing 1M KCl and dialyzed for 4 hours against 50 mM Tris-HCl buffer pH 7.5.\nFor the standard assay condition, the reaction mixture contained 50 mM Tris-HCl, pH 7.5, 1 mM EDTA, 180 μM of IPdR (or its analogs) and approximately 0.01 mg protein of 10,000 g supernatant of tissue homogenate in a final volume of 500 μl and the incubation was at 37° C. for 10 minutes unless specified otherwise. 300 μl of reaction mixture was removed at the end of incubation and mixed with 630 μl acetonitrile then agitated. […] The samples were reconstituted to the original aliquot volume with the HPLC mobile phase buffer and analyzed on a Alltech RP-18 column. IPdR, IUdR and IU were detected at a UV absorption wavelength of 230 nm, and IPdR was also detected at a UV absorption wavelength of 335 nm. […]"}, "IPdR oxidase [2]": {"system": "IPdR oxidase", "assay": "IUdR synthesis by partially purified IPdR oxidase", "assay_type": "biochemical", "details": "37° C., rat liver enzyme purified 380 fold", "description": "Differential fractionation centrifugation was used in an attempt to localize this IPdR conversion enzyme activity in the liver homogenate. The enzyme activity assay was performed on each fraction. […] Further purification was achieved by use of DEAE cellulose column chromatography, blue Sepharose column chromatography and glycerol gradient centrifugation in this order. This IPdR oxidase activity was purified 380 fold starting from the crude extracts of rat liver. The partially purified enzyme catalyzed IUdR synthesis at a rate of 3.8 μmoles per minute per milligram of protein at 37° C. under these conditions. The apparent molecular weight of this enzyme in both rats and humans as determined by centrifugation on a 20 to 40% glycerol gradient is approximately 280,000 dalton. Neither cofactor nor divalent cations requirement has been found for the rat liver enzyme or the human liver enzyme."}, "aldehyde oxidase": {"system": "aldehyde oxidase", "assay": "Substrate specificity of the conversion of RPdR to RUdR", "assay_type": "in vitro ADME, rat", "details": "substrate 180 μM; 2 to 4 separate experiments; in nmol/mg/min", "description": "as §1\nFor the standard assay condition, the reaction mixture contained 50 mM Tris-HCl, pH 7.5, 1 mM EDTA, 180 μM of IPdR (or its analogs) and approximately 0.01 mg protein of 10,000 g supernatant of tissue homogenate in a final volume of 500 μl and the incubation was at 37° C. for 10 minutes unless specified otherwise. 300 μl of reaction mixture was removed at the end of incubation and mixed with 630 μl acetonitrile then agitated. The precipitated protein were removed by centrifugation and the supernatant was lyophilized to dryness. The samples were reconstituted to the original aliquot volume with the HPLC mobile phase buffer and analyzed on a Alltech RP-18 column. IPdR, IUdR and IU were detected at a UV absorption wavelength of 230 nm, and IPdR was also detected at a UV absorption wavelength of 335 nm. The mobile phase was 10% acetonitrile/90%mM ammonium acetate, pH 6.8 and the flow rate was 1 ml/minute. Standard curves of IPdR and IUdR were established from the integration value of known concentrations.\nSeveral 2-pyrimidinone deoxyribose analogs were examined for the conversion to their deoxyuridine counterparts. […] Nevertheless the relative Vmax for IPdR in the reaction at pH 7.5 and pH 9.5 is the same. […] The synthetic substrates for aldehyde oxidase appear to be better than its natural substrates, N^1 -methylnicotinamide and acetaldehyde, as judged by the potency of inhibition of N^1 -methylnicotinamide and acetaldehyde to the IPdR oxidation reaction (Table IV). The rate of reactivity of the liver enzyme with different IPdR analogs follows the order EPdR, IP, IPdR, 5-bromo-2-pyrimidinone deoxyribose (BPdR) and 5-methyl-2-pyrimidinone deoxyribose (MPdR) or 5-ethyl-2-pyrimidinone deoxyribose (EtPdR) (Table V). Electronegative substituents in the 5-position seemed to increase the substrate activity in this oxidation reaction.\nSubstrate specificity of the conversion of […]"}, "Xanthine oxidase": {"system": "Xanthine oxidase", "assay": "Conversion of IPdR to IUdR by xanthine oxidase", "assay_type": "biochemical", "details": "isolated from cow milk", "description": "(§2) In order to determine which enzyme is responsible for the catalysts of this IPdR oxidation, a series of known oxido-reductases which have similar capability to oxidize a carbon atom with an adjacent amino group into a carbonyl functionality were explored for their ability to catalyze IPdR oxidation. […] A mixed function oxidase system prepared from the microsome of rat liver a broad spectrum of substrates and is NADPH dependent. […] Alcohol dehydrogenase (which can be obtained from Sigma) and alcohol oxidase (which can be obtained from Sigma) both reside in the soluble fraction of liver cell extracts, but the conversion of IPdR to […] was not detected with purified preparation of either enzyme under the same conditions that they converted their natural substrates effectively. […]"}, "alcohol oxidase": {"system": "alcohol oxidase", "assay": "IPdR conversion by alcohol oxidase", "assay_type": "biochemical", "details": "purified preparation", "description": "as §2"}, "Sarcosine oxidase": {"system": "Sarcosine oxidase", "assay": "IPdR oxidation by sarcosine oxidase", "assay_type": "biochemical", "description": "as §2"}, "[3]": {"system": "bone marrow, gut and liver tissue", "assay": "Thymidine replacement in tissues of athymic nude mice", "assay_type": "in vivo", "description": "Mice were administered daily oral dosages of 0, 100, 250 and 500 mg/kg. Percent dThd replacement as indicative of IPdR incorporation into bone marrow, gut and liver tissue was assayed according to known methods. […] Results presented in FIG. 6 are mean percent thymidine replacement ± one standard error of the mean. N is greater or equal to 3 for each dose."}, "liver and tumor tissue": {"system": "liver and tumor tissue", "assay": "Thymidine replacement in liver and tumor tissue of athymic nude mice having metastatic tumors", "assay_type": "in vivo", "details": "100, 250, 500 mg/kg/d (FIG. 7)", "description": "Mice were administered daily dosages of 0, 100, 250 and 500 mg/kg/d to determine thymidine replacement in liver and tumor tissue. The results presented in FIG. 7 are presented as mean percent thymidine replacement ± one standard error of the mean. n≥3 (control tumors n=2)."}, "HSV-1": {"system": "HSV-1", "details": "Lewandowski et al. 1989; cited from earlier work"}, "HSV-2 [4]": {"system": "HSV-2", "details": "Lewandowski et al. 1989; cited from earlier work"}, "HSV-2 [5]": {"system": "HSV-2", "details": "Lewandowski et al. 1989; cited from earlier work", "remark": "listed apart in the source"}}, "note": "“Also recorded” adds a separate entry of the source.", "data": [{"smiles": "O=c1ncc(I)cn1[C@H]1C[C@H](O)[C@@H](CO)O1", "note": "[IPdR, 1-(2-deoxy-β-D-ribofuranosyl)-5-(iodo)-2-pyrimidinone]", "values": [{"measurement": "Specific activity of the conversion of IPdR to IUdR", "setting": "IPdR oxidase [1]", "result": "2-7 n mole/mg protein/min"}, {"measurement": "rate of IUdR synthesis by partially purified enzyme", "setting": "IPdR oxidase [2]", "result": "3.8 μmoles per minute per milligram of protein"}, {"measurement": "Conversion of RPdR to RUdR", "setting": "aldehyde oxidase", "result": "11 ± 2"}, {"measurement": "conversion of IPdR to IUdR by xanthine oxidase", "setting": "Xanthine oxidase", "result": "failed to convert IPdR to IUdR"}, {"measurement": "conversion of IPdR by alcohol oxidase", "setting": "alcohol oxidase", "result": "not detected"}, {"measurement": "IPdR oxidase activity of sarcosine oxidase", "setting": "Sarcosine oxidase", "result": "no IPdR oxidase activity"}, {"measurement": "incorporation of IUdR into liver", "setting": "[3]; oral, 100, 250, 500 mg/kg daily", "result": "No incorporation of IUdR into liver was found"}, {"measurement": "percent thymidine replacement in bone marrow and gut", "setting": "[3]; oral, 100, 250, 500 mg/kg daily (FIG. 6)", "result": "relatively low; also recorded: relatively small amounts"}, {"measurement": "percent thymidine replacement in tumor", "setting": "liver and tumor tissue", "result": "increasing tumor incorporation; also recorded: increasing percent replacement"}, {"measurement": "percent incorporation in liver", "setting": "liver and tumor tissue; normal liver", "result": "negligible; also recorded: very small percent incorporation"}, {"measurement": "activity against HSV-1 in cell culture", "setting": "HSV-1", "result": "potent activity"}, {"measurement": "activity against HSV-2 in cell culture", "setting": "HSV-2 [4]", "result": "potent activity"}, {"measurement": "activity against HSV-2 in mice", "setting": "HSV-2 [5]", "result": "potent activity"}]}]}
